The source of these data is the METLIN SMRT retention time set (Domingo-Almenara et al. 2019).

A short description of this data set: gradient 5% acetonitrile 3 min, to 50% in 2 min, to 85% in 15 min, held 3 min, 100 µL/min. Particulars: column: Zorbax Extend-C18 2.1 x 50 mm; eluents: water / acetonitrile, 0.1% formic acid. The essentials: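 Retention times come from adduct peaks that were picked computationally and then checked by hand. The standards, pure and pooled in mixtures of ~100 molecules, were run on a Zorbax Extend-C18 column (2.1 × 50 mm, 1.8 μm) at 100 μL/min with water and acetonitrile, each with 0.1% formic acid. Detection was by quadrupole time-of-flight mass spectrometry in positive and negative ionization mode, with a dead volume of 40 μL and a dwell volume of 900 μL.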
Regarding `CC1CCc2onc(C(=O)N3CCN(c4ccccc4)CC3)c2C1` (centres undefined), the RP-LC retention time came out at 1020 s.

Take `Cc1ccc(-n2nc3c(N4CCCC(C(=O)NCc5ccccc5C)C4)nnc(C)c3c2C)cc1` (centres undefined): the RP-LC retention time is 779 s.

Turning to `Cc1ccc(C2NC(=O)N(CC(=O)Nc3ccc4c(c3)OCO4)C3=C2C(=O)OC3)cc1` (centres undefined), the RP-LC retention time was 746 s.

Consider `Cc1ccc(C(=O)Nc2nc(-c3ccc4c(c3)NC(=O)CO4)c(C)s2)cc1`, for which the RP-LC retention time stood at 931 s.

Turning to `CCn1nccc1-c1cccc(-c2noc(-c3cccnc3Cl)n2)c1`, the RP-LC retention time came to 1040 s.

Molecule `CCN1CCN(C(=O)c2cnn(-c3cc(-c4nc(C5CC5)no4)ccn3)c2C)CC1` came in with an RP-LC retention time of 641 s.

On to `COCCN1C(=O)c2ccccc2C(C(=O)NCc2ccccc2OC)C1c1ccc(F)cc1` (centres undefined), for which the RP-LC retention time was found to be 924 s.

In the case of `O=C(Cc1cccs1)NCCn1ncc2c(=O)n(Cc3ccccc3F)cnc21`, the RP-LC retention time was found to be 666 s.

For `COCCC(=O)NC1CCN(C2=NS(=O)(=O)C(c3ccc(C)cc3)=C2C)CC1`, the RP-LC retention time is 708 s.

Consider `O=C(Cc1ccc(Cl)cc1)Nc1cnc(-c2ccccc2)nc1`, for which the RP-LC retention time was determined as 1000 s.

`O=C(CCc1csc(NC(=O)c2cccs2)n1)Nc1ccc2c(c1)OCCO2`: the RP-LC retention time was 733 s.

`CCCNC(=O)Cn1c(=O)c2cnc(-c3ccccc3)nc2n(CC)c1=O` showed an RP-LC retention time of 862 s.

For the molecule `CCCCCC(=O)C(=O)c1ccc(O)cc1O`, the RP-LC retention time came to 819 s.

On to `COc1cc(=O)n(-c2ccccc2)nc1C(=O)N1c2ccc(F)cc2CCC1C` (centres undefined), for which the RP-LC retention time is 866 s.

For the molecule `COc1cccc(C(=O)c2oc3ccccc3c2NC(=O)c2ccccc2[N+](=O)[O-])c1`, the RP-LC retention time is 1080 s.

Consider `CC1=C(c2ccc(C(C)C)cc2)S(=O)(=O)N=C1N1CCC(C(=O)NCCc2ccco2)CC1`, for which the RP-LC retention time was 947 s.

`Cc1c(-c2noc(-c3ccc4cc[nH]c4c3)n2)nnn1Cc1ccccc1` displayed an RP-LC retention time of 1010 s.

`COC(=O)c1cc2c(=O)n(-c3nccs3)ccc2nc1C`: the RP-LC retention time amounted to 896 s.

Regarding `Cn1cccc1-c1cc2n(n1)CCC(=O)N2CCCC(=O)NCc1cccc(Cl)c1`, the RP-LC retention time turned out to be 804 s.

With `Cn1cc(C(=O)NCc2ccc(N3CCCCC3)cc2)c2cccnc21`, the RP-LC retention time was 576 s.

`COCCNC(=O)C1CCCCN1S(=O)(=O)c1ccc(F)cc1` (centres undefined) displayed an RP-LC retention time of 769 s.

As to `CCOc1ccccc1NC(=O)CN1C(=O)C(C)(C)c2ccccc21`, the RP-LC retention time is 976 s.

For the molecule `COC(=O)c1ccc(Cn2nc(C3CC3)c3cnn(-c4cccc(Cl)c4)c3c2=O)cc1`, the RP-LC retention time is 1170 s.

In turn, `CCN1CCN(C(=O)C2CCCN(S(=O)(=O)c3ccc4c(ccn4CC)c3)C2)CC1` (centres undefined) returned an RP-LC retention time of 660 s.

The molecule `CCc1cc(C(=O)Nc2cc(OC)ccc2OC)nc2cc(-c3ccco3)nn12` had an RP-LC retention time of 1260 s.

The molecule `COc1cc(C2CC(=O)c3cnc(N4CCN(C)CC4)nc3C2)cc(OC)c1OC` (centres undefined) gave an RP-LC retention time of 628 s.

On to `O=C(NC1CCCCCC1)c1ccc2c(c1)nc1n2CCN(Cc2ccccc2)C1=O`, for which the RP-LC retention time was 829 s.

On to `CC(C)CC(=O)Nc1ccc(S(=O)(=O)N2CCCC2c2nc(-c3ccc(Cl)cc3)no2)cc1` (centres undefined), for which the RP-LC retention time was determined as 1160 s.

As for `Cc1ccc(-n2c(N3CCC(C(=O)NCC4CC4)CC3)nc3ccsc3c2=O)cc1`, the RP-LC retention time was found to be 808 s.

On to `Cc1cc(C)cc(NC(=O)Cn2nc(C(=O)N3CCOCC3)c3ccccc32)c1`, for which the RP-LC retention time is 819 s.

For `CN(CCNc1nc(-c2ccc(Cl)cc2)nc2ccccc12)C1CCCCC1`, the RP-LC retention time turned out to be 642 s.

With `COc1ccc(Cl)cc1NC(=O)C1(C)Oc2cccnc2NC1=O` (centres undefined), the RP-LC retention time was 798 s.

For `CCCn1c(C)cnc1C1CN(S(=O)(=O)c2ccccc2)C1`, the RP-LC retention time was 565 s.

Regarding `CCc1ccccc1NC(=O)Cn1c(C(C)C)nc2c(c1=O)CCN(Cc1ccccc1)C2`, the RP-LC retention time was 699 s.

`CCOCCCNC(=O)c1ccc(OCc2nnc(C(=O)Nc3ccccc3F)s2)cc1`: the RP-LC retention time came to 853 s.

Turning to `Cc1ccc(S(=O)(=O)N2CCCC2C(=O)Nc2nnc(-c3ccc(C)c(C)c3)o2)cc1` (centres undefined), the RP-LC retention time worked out at 872 s.

For the molecule `COc1ccc(CNC(=O)C2(C)CCCN(S(=O)(=O)c3ccc(C)cc3)C2)cc1` (centres undefined), the RP-LC retention time worked out at 946 s.

In turn, `COc1ccc(Cl)cc1NS(=O)(=O)c1cn(C(C)C)c2ncccc12` came in with an RP-LC retention time of 972 s.

With `Fc1ccc(Cn2cc(-c3noc(-c4ccc5c(c4)OCO5)n3)nn2)cc1`, the RP-LC retention time amounted to 937 s.

`O=c1c2oc3ccccc3c2ncn1Cc1nc(-c2cccc(Cl)c2)no1`: the RP-LC retention time was found to be 1010 s.

Regarding `CSc1ccc(CNC(=O)C2CCCN(c3ncnc4c3oc3ccccc34)C2)cc1` (centres undefined), the RP-LC retention time was determined as 786 s.

On to `O=C(c1ccccc1F)N1CCN(c2nc(-c3ccc(Cl)cc3)no2)CC1`, for which the RP-LC retention time was 1040 s.

As to `CCC(C)NC(=O)c1cc(C)[nH]n1` (centres undefined), the RP-LC retention time stood at 623 s.

In turn, `Cn1ncc2c(N3CCSCC3)nc(C(=O)Nc3ccccc3)nc21` showed an RP-LC retention time of 819 s.

As for `CCC(CC)C(=O)N(C)CCc1noc(-c2ccc(C(=O)N3CCCC3)cc2)n1`, the RP-LC retention time turned out to be 796 s.

On to `CCCNC(=O)CN1c2ccc(F)cc2-c2ccccc2S1(=O)=O`, for which the RP-LC retention time came to 824 s.

As to `Cn1cnc(S(=O)(=O)N2CCC(C(=O)N3CCN(c4cccc(Cl)c4)CC3)CC2)c1`, the RP-LC retention time worked out at 780 s.

In turn, `CCc1ccc(-n2ncc3c(=O)n(Cc4nc(-c5ccc(SC)cc5)no4)cnc32)cc1` gave an RP-LC retention time of 1210 s.

`Cc1c(C(=O)C(=O)NCc2ccccn2)c2ccccc2n1C`: the RP-LC retention time came out at 625 s.

`CC(C)c1nc(-c2ccc(C(=O)N3CCN(c4nc5cccnc5o4)CC3)cc2)no1` came in with an RP-LC retention time of 828 s.

In the case of `O=S(=O)(c1ccc(Cl)s1)N1CC(c2nc(-c3ncccn3)no2)C1`, the RP-LC retention time came out at 725 s.

With `COc1cccc(S(=O)(=O)N2CCCC(c3nn[nH]n3)C2)c1` (centres undefined), the RP-LC retention time was found to be 717 s.

Molecule `CC(C(=O)NCCN1CCCCC1)n1c(=O)c(C(F)(F)F)nc2ccccc21` (centres undefined) showed an RP-LC retention time of 601 s.

Turning to `CN1C(=O)CCc2cc(NC(=O)c3ccnn3C)ccc21`, the RP-LC retention time turned out to be 645 s.

The molecule `CCOC(=O)c1ccc(-n2ccc3nc(C)c(C(=O)OC)cc3c2=O)cc1` had an RP-LC retention time of 874 s.

`O=C(Cn1nc2c(SC3CCCCC3)nccn2c1=O)NC1CCCC1` came in with an RP-LC retention time of 939 s.

`CCc1cc2c(N3CCCC(C(=O)NCCCN4CCN(C)CC4)C3)ncnc2s1` (centres undefined) yielded an RP-LC retention time of 585 s.

Regarding `Cc1ccc(-c2nc(-c3ccc4ncn(C(C)C)c4c3)no2)cc1`, the RP-LC retention time stood at 857 s.

On to `COc1ccc(OC)c(NC(=O)N2C[C@@H](F)C[C@H]2C(=O)N2CCc3ccccc3C2)c1`, for which the RP-LC retention time came to 826 s.

For the molecule `CCNC(=O)NCCc1cn(C)c2ncccc12`, the RP-LC retention time turned out to be 556 s.

The molecule `Cc1noc(C)c1C1CCCN1C(=O)Cc1cccc(F)c1` (centres undefined) had an RP-LC retention time of 777 s.

`CCc1nc(OCC(=O)Nc2ccc(Cl)cc2F)c2ccccc2n1` yielded an RP-LC retention time of 899 s.

As to `CCCn1c(=O)sc2cc(S(=O)(=O)N3CCC(C(=O)N4CCC(C)CC4)CC3)ccc21`, the RP-LC retention time turned out to be 994 s.

As for `Cc1cccc(C(=O)N2CCN(c3nnc4cccc(C)n34)CC2)c1`, the RP-LC retention time stood at 680 s.

In the case of `O=C(CN1CC=C(c2cnn(-c3ccc(F)cc3)c2)CC1)NCc1ccco1`, the RP-LC retention time came out at 658 s.

In turn, `O=C(NCc1ccccc1)C1CCCN(c2nc3ccsc3c(=O)n2Cc2ccc(F)cc2)C1` (centres undefined) displayed an RP-LC retention time of 943 s.

For `O=C(c1ccco1)N1CCCC(OCc2nc(C3CC3)no2)C1` (centres undefined), the RP-LC retention time worked out at 732 s.

Take `Cc1nn2c(CNC(=O)c3ccc(C(F)(F)F)cc3)c(C)nc2s1`: the RP-LC retention time was 692 s.

Take `COc1ccccc1CNC(=O)c1nnc(-c2ccc(S(=O)(=O)N(C)C)cc2)o1`: the RP-LC retention time amounted to 852 s.

In turn, `CCOc1ccc(NC(=O)N2CCC(n3c(-c4ccco4)nc4cccnc43)C2)cc1` (centres undefined) yielded an RP-LC retention time of 759 s.

Molecule `Cc1oncc1CN1CCN(C(=O)c2c(F)cccc2F)CC1` showed an RP-LC retention time of 562 s.

Molecule `COc1ccccc1-c1noc(C2CCCN2C(=O)Cc2c[nH]c3ccccc23)n1` (centres undefined) yielded an RP-LC retention time of 838 s.

`CC(Cc1ccccc1)(NC(=O)CN)c1ccccc1` (centres undefined) yielded an RP-LC retention time of 730 s.

`COc1cccc(-c2noc(CCn3nc(-c4ccc5c(c4)OCO5)ccc3=O)n2)c1OC` yielded an RP-LC retention time of 852 s.

The molecule `CCN(CC)S(=O)(=O)c1ccc2c(c1)N(CC(=O)NCc1ccc(C)o1)C(=O)C1CCCCN21` (centres undefined) had an RP-LC retention time of 959 s.

The molecule `O=C(Nc1cnc(-c2ccc(C(F)(F)F)cc2)nc1)C1CCOC1` (centres undefined) yielded an RP-LC retention time of 888 s.

The molecule `CCOC(=O)Cn1c(C2CC(=O)N(c3cc(OC)ccc3OC)C2)nc2ccccc21` (centres undefined) registered an RP-LC retention time of 725 s.

Turning to `CN(Cc1ccco1)C(=O)C1CCCN(c2nc3cccnc3s2)C1` (centres undefined), the RP-LC retention time amounted to 745 s.

`COc1cccc(NC(=O)C2CCN(S(=O)(=O)c3ccc4c(c3)CCCC(=O)N4)CC2)c1` came in with an RP-LC retention time of 755 s.
